# In patent publication US12297294B2, “Cortistatin analogues for the treatment of inflammatory and/or immune diseases” (BCN PEPTIDES, S.A., priority 2013, dated 2025):
# Where a SMILES comes first, the peptide text is derived from it. Bridges are numbered along the chain shown (N, C = ends).
# Columns and labels:
# [1] = tested on: acute colitis induced by Dextran sulfate sodium (DSS); test: Experimental model of ulcerative colitis (DSS-induced acute colitis); format: in vivo, C57Bl/6 male mice
# Protocol: 7-8 week old C57Bl/6 male mice were used. They were given voluntary drinking water with 5% of Dextran sulfate sodium (DSS) from day 0 to day 7 of the study in order to induce acute colitis. Animals in the control group were supplied with normal water. […] CST was used as a reference product. The severity of the colitis was assessed daily using a scale of values from 0 to 4 indicating the clinical disease activity index considering stool consistency, the presence of bloody stools and weight loss. Mice were sacrificed on day 8 of the study and after the necropsy the extent of macroscopic damage was established in the colon using a scale from 0 to 8. […] The average weight of the sick mice's colons was 763 mg, the average weight of the colons of the sick mice treated with CST was 621 mg and that of the colons of the sick mice treated with the new cortistatin analogues was between 614-621 mg, indicating a reduction of the inflammation of the colon.
# [2] = Serum stability in 90% human serum at 37° C., RP-HPLC; format: in vitro ADME
# Protocol: The new compounds were incubated with 90% human serum at 37° C. Aliquots were extracted at different incubation times. Methanol was added to precipitate the proteins from the serum, it was centrifuged and the supernatant was subject to a chromatographic analysis using RP-HPLC (Gradient: 20-80% B in 30 min, B=0.07% TFA in acetonitrile). The disappearance of the initial product was analyzed using the area corresponding to the initial product and half-life time was calculated.
structure (smiles),measurement,setting,value
C[C@@H](O)[C@@H]1NC(=O)[C@H](CCCCN)NC(=O)[C@H](Cc2c[nH]c3ccccc23)NC(=O)[C@H](Cc2ccccc2)NC(=O)[C@H](Cc2ccccc2)NC(=O)[C@H](CC(N)=O)NC(=O)[C@H](CCCCN)NC(=O)[C@@H](NC(=O)[C@@H]2CCCN2)CSSC[C@@H](C(=O)N[C@@H](CCCCN)C(=O)O)NC(=O)[C@H](CO)NC(=O)[C@H](CO)NC(=O)[C@H](Cc2ccccc2)NC1=O [cortistatin] (H-PCKNFFWKTFSSCK-OH; disulfide 2-13),clinical disease activity index (0-4),"[1]; 5% DSS, 0.4 mg/Kg s.c. days 1, 2 and 3, diseased group 3.7",1-1.5
same,average weight of colon,"[1]; necropsy day 8, sick mice 763 mg",621 mg
same,macroscopic grade of colitis (0-8),"[1]; necropsy day 8, sick mice 6.6",0.87
same,half-life,[2],2 min
